The subject of series [1] is sodium channel. As to the kind of experiment: veratrine-evoked uptake of [14C]guanidine into rat forebrain synaptosomes ([14C]guanidine flux). The class given is biochemical. On the procedure:
The screening strategy is designed to select compounds with appropriate sodium channel blocking activity and low side effect liability. To this end all compounds are processed through the primary sodium channel assay (veratrine-evoked uptake of [^14C]guanidine into rat forebrain synaptosomes) and IC50 values computed from generated concentration-effect curves.
Synaptosomes (heavy and light mitochondrial fraction containing synaptosomes) were prepared by transferring the forebrain (of known wet weight) to a glass Potter vessel to which 9 volumes ice-cold 0.25M sucrose had been added and homogenising, using a teflon pestle, by 8 ‘up and down strokes’ of a Braun Potter S motor driven homogeniser set to 900 rpm. The resulting homogenate was centrifuged at 1036×g at 4° for 10 min and the supernatant collected. The remaining pellet was resuspended, as above, in fresh ice-cold 0.25M sucrose and the centrifugation step repeated. The supernatant fractions were pooled and centrifuged at 40,000×g (average) at 4° for 15 min and the resulting pellet resuspended in the appropriate assay buffer at a concentration of 20-25 mg wet weight per ml appropriate assay buffer.
Both assays were carried out using 14 ml polypropylene test tubes to which a range of concentrations of the compounds under test were added.
Compounds under test were pre-incubated for 10 min at 30° in incubation buffer (50 mM pH 7.4 HEPES (adjusted to pH 7.4 with Tris base), 130 mM choline chloride, 5.5 mM D-glucose, 0.8 mm MgSO4 and 5 mM KCl) containing 7.5 mg original wet weight of tissue and 100 μg veratrine HCl in a final volume of 0.5 ml. […] A further 2×5 ml of ice-cold wash buffer was added to each tube and the vacuum filtration step repeated. The GF/C glass fibre filters were transferred to minivials and 4 ml Picofluor^40 liquid scintillant added using a Brandel™ deposit/dispense system. Radioactivity was measured using a Beckman Liquid Scintillation Counter.
(§1) Data are presented as mean±sem of number of experiments indicated in brackets.

Series [2] deals with sodium channel. The class given is binding, rat.
Series [3] addresses T1, DiHydroFolate Reductase (DHFR) (Rattus norvegicus, UniProt Q920D2).
T1 construct: from tissue; host or cells: rat liver homogenate supernatant (47,500 x g)
T1 sequence (Q920D2 1-187): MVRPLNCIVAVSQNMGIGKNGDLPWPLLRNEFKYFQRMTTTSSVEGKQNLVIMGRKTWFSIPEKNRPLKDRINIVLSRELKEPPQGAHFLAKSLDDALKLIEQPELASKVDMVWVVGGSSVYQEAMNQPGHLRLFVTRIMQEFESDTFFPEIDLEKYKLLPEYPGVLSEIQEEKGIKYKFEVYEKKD
Description: inhibition of binding of [3H]methotrexate to rat liver homogenate supernatant. The note with it: for IC50: rat liver supernatant. The protocol: All steps were carried out at 4° (or on ice). Freshly dissected rat liver was dissected into 0.25M ice-cold Sucrose and subsequently homogenised (U-turrax) in 50 mM pH 6.0 phosphate buffer (10 ml/g tissue) containing 15 mM Dithiothreitol. The resulting homogenate was centrifuged @ 47,500×g for 20 min and supernatant (filtered through cotton wool to remove fatty lumps) stored @-80° before use (Rothenberg et al).
The binding reaction was stopped by the addition of 50 μl of a charcoal suspension (consisting of charcoal, Bovine Serum Albumin and Dextran present in a weight ratio of 100:4:1 suspended in 50 mM pH 6.0 phosphate buffer. Samples were vortexed, allowed to stand for 2 minutes and charcoal was precipitated by microcentrifugation @ full speed for 5 min. Aliquots of clear supernatant were transferred to counting vials containing liquid scintillant for measurement of radioactivity using Liquid Scintillation Spectroscopy.
Percentage inhibition values were calculated by comparison to this value.
as §1

Series [4] has as its target T2, hERG potassium channel (Homo sapiens, UniProt Q12809). Description: in vitro.
The target in series [5] is T2, hERG potassium channel. Description: inhibition of binding of [3H]astemizole to cell membranes expressing hERG. To be noted: for selectivity ratio: human, cell membranes expressing hERG, probe [3H]astemizole.
[6] abbreviates: Table 3, rat forebrain synaptosomes, read-out: [14C]guanidine flux Mean (IC50: μM).
[7] abbreviates: Table 4, tissue prep'n Synaptosomes, read-out: [3H]BTX-B binding Mean (IC50: μM).
The mark [8] stands for this setting: Table 5, read-out: [14C]guanidine flux IC50.
Where [9] appears, read: read-out: [3H]methotrexate binding Inhibition (% @ assay conc'n), assay concentration 10 μM.
The mark [10] stands for this setting: read-out: [3H]methotrexate binding Inhibition (% @ assay conc'n), assay concentration 99 μM.

Where two headings read alike, the source gives them in different places.

T2 sequence (Q12809 whole entry): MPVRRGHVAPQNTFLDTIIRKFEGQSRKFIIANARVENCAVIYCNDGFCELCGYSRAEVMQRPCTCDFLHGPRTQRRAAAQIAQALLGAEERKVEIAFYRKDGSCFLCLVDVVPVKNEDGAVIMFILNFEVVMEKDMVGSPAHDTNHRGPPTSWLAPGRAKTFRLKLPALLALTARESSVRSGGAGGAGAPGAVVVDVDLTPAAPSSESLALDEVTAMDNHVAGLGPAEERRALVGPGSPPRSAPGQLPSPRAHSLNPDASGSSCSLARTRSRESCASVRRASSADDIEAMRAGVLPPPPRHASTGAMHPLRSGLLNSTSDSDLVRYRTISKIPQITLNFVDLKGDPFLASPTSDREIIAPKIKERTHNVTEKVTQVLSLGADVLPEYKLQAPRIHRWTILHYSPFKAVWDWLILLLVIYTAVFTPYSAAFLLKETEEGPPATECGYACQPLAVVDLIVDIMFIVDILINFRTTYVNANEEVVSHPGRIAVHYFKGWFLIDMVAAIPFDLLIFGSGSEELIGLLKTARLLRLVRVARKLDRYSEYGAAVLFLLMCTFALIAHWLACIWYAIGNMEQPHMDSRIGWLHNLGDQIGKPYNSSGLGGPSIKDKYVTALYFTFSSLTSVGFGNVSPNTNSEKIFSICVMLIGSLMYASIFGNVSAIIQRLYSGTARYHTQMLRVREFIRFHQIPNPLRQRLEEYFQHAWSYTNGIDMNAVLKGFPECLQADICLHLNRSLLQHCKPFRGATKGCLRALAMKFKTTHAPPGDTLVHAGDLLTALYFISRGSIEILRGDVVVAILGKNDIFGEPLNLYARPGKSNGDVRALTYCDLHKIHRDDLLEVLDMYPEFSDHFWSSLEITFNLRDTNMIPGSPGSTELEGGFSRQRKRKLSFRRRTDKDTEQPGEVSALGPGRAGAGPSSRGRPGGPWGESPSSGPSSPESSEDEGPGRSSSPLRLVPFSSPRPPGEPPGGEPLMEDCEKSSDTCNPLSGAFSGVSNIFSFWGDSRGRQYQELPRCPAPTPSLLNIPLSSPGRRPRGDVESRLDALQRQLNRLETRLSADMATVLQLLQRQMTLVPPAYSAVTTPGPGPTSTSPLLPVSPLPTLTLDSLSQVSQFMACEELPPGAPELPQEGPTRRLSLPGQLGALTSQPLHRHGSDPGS

As for `Nc1nc(N)c(-c2cc(Cl)cc(Cl)c2Cl)c(CF)n1` [BW202W92, reference compound], the IC50 was 2 µM with sodium channel [1] (setting [6]); 2.5 µM with sodium channel [1] (Table 8, read-out: IC50 (μM) (uptake of [14C]guanidine)); 4.5 ± 0.4 µM in the series with sodium channel [2] (Table 1, synaptosomes, mean ± sem (n), read-out: [3H]BTX-B binding (synaptosomes), mean IC50); 4.1 µM in the series with sodium channel [2] (Table 4, tissue prep'n Homogenate, read-out: [3H]BTX-B binding Mean (IC50: μM)); 4.5 µM with sodium channel [2] (setting [7]). For the same compound, the “pIC50 (uptake of [14C]guanidine)” value in the series on sodium channel [1] (Table 8) was 5.61 ± 0.04. For the same compound, the “Hill (uptake of [14C]guanidine)” value with sodium channel [1] (Table 8, slope) stood at 1.07. For the same compound, the “[3H]methotrexate binding Inhibition (% @ assay conc'n)” value is recorded as −1% in series [3] (assay concentration 10 μM) and 29% in series [3] (assay concentration 99 μM).

On to `C=CCn1nc(-c2cccc(Cl)c2Cl)c(N)nc1=N` [Example 10, 5(3)-Amino-6-(2,3-dichlorophenyl)-2,3(2,5)-dihydro-3(5)-imino-2-(prop-2-enyl)-1,2,4-triazine hemi-methanesulfonate], for which the IC50 came out at 6.1 µM in the series with sodium channel [1] (setting [6]), 6.1 µM in the series on sodium channel [1] (setting [8]) and 10 µM at hERG potassium channel [5]. The inhibition at 10 µM was -2% in series [3] (setting [9]) and 50% against hERG potassium channel [4]. Besides, the inhibition at 99 µM in series [3] (setting [10]) was -1%. Also, the selectivity ratio at hERG potassium channel [5] worked out at 1.6.

On to `N=c1nc(N)c(-c2cccc(Cl)c2Cl)nn1Cc1cccc(F)c1F` [Example 13, 5(3)-Amino-6-(2,3-dichlorophenyl)-2,3(2,5)-dihydro-3(5)-imino-2-(2,3-difluoro)phenylmethyl-1,2,4-triazine], for which the IC50 with sodium channel [1] (setting [6]) was 2.8 µM; in the series on sodium channel [1] (setting [8]), 2.8 µM; at hERG potassium channel [5] it was 1.9 µM. In addition, the inhibition at 10 µM was -3% in series [3] (setting [9]) and 84% against hERG potassium channel [4]. In addition, in series [3] (setting [10]), the inhibition at 99 µM is -4%. Besides, the selectivity ratio at hERG potassium channel [5] amounted to 0.7.

Regarding `N=c1nc(N)c(-c2cccc(Cl)c2Cl)nn1Cc1ccccc1F` [Example 14, 5(3)-Amino-6-(2,3-dichlorophenyl)-2,3(2,5)-dihydro-3(5)-imino-2-(2-fluoro)phenylmethyl-1,2,4-triazine], the values for the IC50 in the series on sodium channel [1] (setting [6]), with sodium channel [1] (setting [8]) and on hERG potassium channel [5] were 2.8 µM, 2.8 µM and 2.5 µM, respectively. In addition, the inhibition at 10 µM was -1% in series [3] (setting [9]) and 80% against hERG potassium channel [4]. Also, the inhibition at 99 µM in series [3] (setting [10]) is -4%. Moreover, the selectivity ratio at hERG potassium channel [5] stood at 0.9.

For `N=c1nc(N)c(-c2cccc(Cl)c2Cl)nn1Cc1cccc(F)c1` [Example 15, 5(3)-Amino-6-(2,3-dichlorophenyl)-2,3(2,5)-dihydro-3(5)-imino-2-(3-fluoro)phenylmethyl-1,2,4-triazine], the IC50 was found to be 3.9 µM in the series on sodium channel [1] (setting [6]), 3.9 µM in the series on sodium channel [1] (setting [8]) and 2 µM at hERG potassium channel [5]. Moreover, the figures for the inhibition at 10 µM (in series [3] (setting [9]); at hERG potassium channel [4]) were -4% and 83%, respectively. In addition, the inhibition at 99 µM in series [3] (setting [10]) was -5%. The selectivity ratio on hERG potassium channel [5] is 0.5.

Turning to `COc1ccccc1Cn1nc(-c2cccc(Cl)c2Cl)c(N)nc1=N` [Example 17, 5(3)-Amino-6-(2,3-dichlorophenyl)-2,3(2,5)-dihydro-3(5)-imino-2-(2-methoxy)phenylmethyl-1,2,4-triazine], the IC50 in the series with sodium channel [1] (setting [6]) came to 4.6 µM; with sodium channel [1] (setting [8]), 4.6 µM; on hERG potassium channel [5], 1.9 µM. The values for the inhibition at 10 µM (in series [3] (setting [9]); against hERG potassium channel [4]) were -4% and 84%, respectively. Also, in series [3] (read-out: [3H]methotrexate binding Inhibition (% @ assay conc'n), assay concentration 198 μM), the inhibition at 198 µM was -3%. In addition, the selectivity ratio at hERG potassium channel [5] amounted to 0.4.

As for `COc1cccc(Cn2nc(-c3cccc(Cl)c3Cl)c(N)nc2=N)c1` [Example 18, 5(3)-Amino-6-(2,3-dichlorophenyl)-2,3(2,5)-dihydro-3(5)-imino-2-(3-methoxy)phenylmethyl-1,2,4-triazine], the IC50 came to 3.1 µM in the series on sodium channel [1] (setting [6]), 3.1 µM in the series with sodium channel [1] (setting [8]) and 1.5 µM at hERG potassium channel [5]. The inhibition at 10 µM was -4% in series [3] (setting [9]) and 87% against hERG potassium channel [4]. Also, the inhibition at 99 µM in series [3] (setting [10]) is -5%. The selectivity ratio on hERG potassium channel [5] turned out to be 0.5.

On to `N=c1nc(N)c(-c2cccc(Cl)c2Cl)nn1Cc1ccccc1C(F)(F)F` [Example 23, 5(3)-Amino-6-(2,3-dichlorophenyl)-2,3(2,5)-dihydro-3(5)-imino-2-(2-trifluoromethyl)phenylmethyl-1,2,4-triazine], for which the IC50 with sodium channel [1] (setting [6]) worked out at 4.4 µM; with sodium channel [1] (setting [8]) it was 4.4 µM; at hERG potassium channel [5], 1.1 µM. Also, the inhibition at 10 µM against hERG potassium channel [4] came out at 90%. Also, on hERG potassium channel [5], the selectivity ratio is 0.3.

With `N=c1nc(N)c(-c2cccc(Cl)c2Cl)nn1Cc1cccc(C(F)(F)F)c1` [Example 24, 5(3)-Amino-6-(2,3-dichlorophenyl)-2,3(2,5)-dihydro-3(5)-imino-2-(3-trifluoromethyl)phenylmethyl-1,2,4-triazine], the values for the IC50 in the series with sodium channel [1] (setting [6]), in the series with sodium channel [1] (setting [8]) and on hERG potassium channel [5] were 4 µM, 4 µM and 0.6 µM, respectively. For the same compound, the inhibition at 10 µM on hERG potassium channel [4] is 94%. Further, the selectivity ratio at hERG potassium channel [5] was 0.2.

For `N=c1nc(N)c(-c2cccc(Cl)c2Cl)nn1Cc1ccsc1` [Example 29, 5(3)-Amino-6-(2,3-dichlorophenyl)-2,3(2,5)-dihydro-3(5)-imino-2-(3-thienylmethyl)-1,2,4-triazine], the IC50 with sodium channel [1] (setting [6]) was 7.3 µM; in the series on sodium channel [1] (setting [8]), 7.3 µM; in the series with sodium channel [2] (setting [7]), 2.2 µM; with sodium channel [2] (Table 5, Synaptosome data, read-out: [3H]BTX-B IC50), 2.2 µM; in series [3], over 250 µM; on hERG potassium channel [5], 2 µM. Moreover, on hERG potassium channel [4], the inhibition at 10 µM came to 83%. For the same compound, the selectivity ratio at hERG potassium channel [4] (hERG / [3H]BTX-B selectivity, ratio of extrapolated hERG IC50 to [3H]BTX-B IC50 (synaptosomes)) was 0.9; on hERG potassium channel [5], 0.3.

Take `Cn1nc(-c2cccc(Cl)c2F)c(N)nc1=N` [Example 36, 5(3)-Amino-6-(3-chloro-2-fluorophenyl)-2,3(2,5)-dihydro-3(5)-imino-2-methyl-1,2,4-triazine]: the IC50 was 129 µM in the series on sodium channel [1] (setting [6]), 129 µM in the series on sodium channel [1] (setting [8]), over 300 µM in series [3] and 20.3 µM at hERG potassium channel [5]. For the same compound, the inhibition at 10 µM against hERG potassium channel [4] came to 33%. The selectivity ratio at hERG potassium channel [5] came to 0.2.

For the compound `N=c1nc(N)c(-c2cccc(Cl)c2Cl)nn1CC1CCNCC1` [Example 38, 4-[5(3)-Amino-6-(2,3-dichlorophenyl)-2,3(2,5)-dihydro-3(5)-imino-1,2,4-triazin-2-ylmethyl]piperidine dimethanesulfonate or 5(3)-Amino-6-(2,3-dichlorophenyl)-2,3(2,5)-dihydro-3(5)-imino-2-(piperidin-4-yl)methyl-1,2,4-triazine], the IC50 is 20.9 µM with sodium channel [1] (setting [6]), 20.9 µM in the series on sodium channel [1] (setting [8]), over 300 µM in series [3] and 2.5 µM on hERG potassium channel [5]. In addition, the inhibition at 10 µM against hERG potassium channel [4] stood at 80%. Also, at hERG potassium channel [5], the selectivity ratio was 0.1.

For the compound `Cn1nc(-c2cc(Cl)ccc2Cl)c(N)nc1=N` [Example 48, 5(3)-Amino-6-(2,5-dichlorophenyl)-2,3(2,5)-dihydro-3(5)-imino-2-methyl-1,2,4-triazine methanesulfonate], the figures for the half-inhibitory concentration (IC50) (with sodium channel [1] (setting [6]); in series [3]) were 28.2 µM and 251 µM, respectively.

With `CCn1nc(-c2cc(Cl)ccc2Cl)c(N)nc1=N` [Example 49, 5(3)-Amino-6-(2,5-dichlorophenyl)-2,3(2,5)-dihydro-3(5)-imino-2-ethyl-1,2,4-triazine methanesulfonate], the IC50 with sodium channel [1] (setting [6]) amounted to 20.9 µM; in series [3], 95 µM.
